Like-named read-outs stand apart in the source and are kept apart here.
Experiments:
[1] = test system: Blattella germanica; assay: Mortality test on beetles, treated glass plates with chloropyriphos or propoxur; type: in vivo; settings: 24 hours exposure; for Mortalità 1gg: 1 day from application; for Mortalità 3gg: 3 days from application
Protocol: Solutions of products of examples 1 and 3 in acetone and, for comparison, of piperonyl butoxide, with the organic phosphorus compound chloropyriphos and with carbamate compound propoxur, were applied from a distance of 12 cm on glass plates (model Ostra, 15×15 cm=225 square cm) by means of a suitable glass sprayer so as to obtain an applied amount of organic phosphorous compound equal to 33 mg/square m and of carbamate equal to 500 mg/mq. The products of examples 1 e 3 and the comparison compound PBO were in a weight ratio of 5:1 w/w with respect to the organic phosphorous compound and to the carbamate.
In the same way acetone solutions of organic phosphorous compound and of carbamate compound were prepared so as to obtain an applied amount of organic phosphorous compound equal to 33 mg/square m and of carbamate compound equal to 500 mg/mq. After the application the plates were transferred to a closed test room under controlled temperature and humidity (24-25° C., RH 50-60%). Glass rings (h 5.5 cm×diameter 9.5 cm), having internal surface treated with talc and each one containing 5 beetles—Blattella germanica—were placed in the centre of the plates. They were evaluated each one after 1 day and three days from the application. For each day, the insects were maintained on the surface for 24 hours.

[2] = test system: adult, female insects of the Musca domestica species; assay: whole plant or invertebrate; type: in vivo; settings: for Mortality: compound 1.25% w/v + tetramethrin 0.25% w/v in acetone; for synergist activity in respect of the tetramethrin: summary of Table 1, comparison with PBO
Protocol: After having mixed the products of Examples 1-4 with tetramethrin in acetone respectively at a concentration of 1.25% for the products of examples 1-4 and of 0.25% for the tetramethrin, 0.5 μl of acetone solution was applied to adult, female insects of the Musca domestica species, on the rear part of the pectoral region. The insect was then transferred to a closed plastic container approximately 12 cm in diameter and 6 cm in height and left at 25° C. with supply of 5% sugar solution. After 24 hours the alive and dead flies were examined to determine the percentage mortality. The total number of flies per container was equal to 20 and the test was repeated three times. For comparison acetone solutions at the same concentrations as previously indicated for the compounds of examples 1-4 and for tetramethrin alone were prepared.
For comparison an acetone solution at an equal concentration of piperonyl butoxide and tetramethrin and an acetone solution at the same concentration of piperonyl butoxide alone were also prepared.

[3] = product 165 mg/sm + chloropyriphos 33 mg/sm
[4] = product 2500 mg/sm + propoxur 500 mg/sm
[5] = Musca domestica, compound alone 1.25% w/v in acetone, tetramethrin 0, 0.5 μl topical, after 24 hours, read-out: Mortality

SMILES | Mortalità 1gg [1, 3] [%] | Mortalità 3gg [1, 3] [%] | Mortalità 1gg [1, 4] [%] | Mortalità 3gg [1, 4] [%] | mortality at 1.25 % strength [2, 5] [%] | Mortality ([2]; 0.5 μl topical, after 24 hours) [%] | further results
CNC(=O)Oc1ccccc1OC(C)C [Propoxur, propoxur, reference compound] | – | – | – | – | – | – | Mortalità 1gg ([1]; propoxur alone 500 mg/sm): 20%; Mortalità 3gg ([1]; propoxur alone 500 mg/sm): 31%
CCCCOCCOCCOCc1cc2c(cc1CCC)OCO2 [PBO, 5-[2-(2-butoxyethoxy)-ethoxymethyl]6-propyl-1,3-benzodioxole, reference compound] | 45 | 65 | 35 | 42 | – | – | mortality at 1.25 % strength ([2]; Musca domestica, topical, 24 h): 0%
CCCCCCCCCCc1cc2c(cc1COCCOCCOCCCC)OCO2 [Ex. 4, 5-[2-(2-Butoxyethoxy)-ethoxymethyl]-6-n-decyl-1,3-benzodioxole] | – | – | – | – | 0 | 80 | –
CC(C)=CC1C(C(=O)OCN2C(=O)C3=C(CCCC3)C2=O)C1(C)C (stereo not shown) [tetramethrin, reference compound] | – | – | – | – | – | – | mortality at 0.25 % strength ([2]; Musca domestica, topical, 24 h): 20%
CCCCCCCCc1cc2c(cc1COCCOCCOCCCC)OCO2 [Ex. 1, 5-[2-(2-butoxyethoxy)-ethoxymethyl]-6-n-octyl-1,3-benzodioxole] | 62 | 85 | 48 | 60 | 0 | 100 | synergist activity in respect of the tetramethrin [2]: most active as synergists
CCCCOCCOCCOCc1cc2c(cc1CCCC)OCO2 [Ex. 2, 5-[2-(2-butoxyethoxy)-ethoxymethyl]-6-n-butyl-1,3-benzodioxole] | – | – | – | – | 0 | 80 | –
CCOP(=S)(OCC)Oc1nc(Cl)c(Cl)cc1Cl [Chloropyriphos, chloropyriphos, reference compound] | – | – | – | – | – | – | Mortalità 1gg ([1]; chloropyriphos alone 33 mg/sm): 32%; Mortalità 3gg ([1]; chloropyriphos alone 33 mg/sm): 48%
CCCCCCc1cc2c(cc1COCCOCCOCCCC)OCO2 [Ex. 3, 5-[2-(2-Butoxy-ethoxy)-ethoxymethyl]-6-n-hexyl-1,3-benzodioxole] | 60 | 80 | 44 | 56 | 0 | 100 | synergist activity in respect of the tetramethrin [2]: most active as synergists
